How the values were obtained:
Type in all cases: cell-based
[1] = tested on: Resistant Enterococcus faecium and faecalis; assay: MIC, standard broth micro-dilution assay, Resistant; conditions: geometric mean of 4-6 isolates
Protocol: (§1) The antibacterial efficacy of the present compounds is illustrated by Table III. The minimal inhibitory concentrations (MICs) were determined using a standard broth micro-dilution assay.

[2] = tested on: Sensitive Enterococcus faecium and faecalis; assay: MIC, standard broth micro-dilution assay, Sensitive; conditions: geometric mean of 4-6 isolates
Protocol: as §1

[3] = tested on: Staphylococcus aureus 446; assay: MIC, standard broth micro-dilution assay, SA 446
Protocol: as §1

[4] = tested on: Staphylococcus aureus 489; assay: MIC, standard broth micro-dilution assay, SA 489
Protocol: as §1

[5] = tested on: Staphylococcus aureus 447; assay: MIC, standard broth micro-dilution assay, SA 447
Protocol: as §1

[6] = tested on: Staphylococcus aureus X400; assay: MIC, standard broth micro-dilution assay, SA X400
Protocol: as §1

[7] = tested on: Staphylococcus aureus X778; assay: MIC, standard broth micro-dilution assay, SA X778
Protocol: as §1

[8] = tested on: Staphylococcus aureus 491; assay: MIC, standard broth micro-dilution assay, SA 491
Protocol: as §1

[9] = tested on: Staphylococcus aureus S13E
Protocol: as §1

[10] = tested on: Staphylococcus aureus SA1199; assay: MIC, standard broth micro-dilution assay, SA 1199
Protocol: as §1

[11] = tested on: Staphylococcus aureus SA1199A; assay: MIC, standard broth micro-dilution assay, SA 1199A
Protocol: as §1

[12] = tested on: Staphylococcus haemolyticus 105; assay: MIC, standard broth micro-dilution assay, SH 105
Protocol: as §1

[13] = tested on: Staphylococcus haemolyticus 415; assay: MIC, standard broth micro-dilution assay, SH 415
Protocol: as §1

[14] = tested on: Staphylococcus epidermidis 270; assay: MIC, standard broth micro-dilution assay, SE 270
Protocol: as §1

[15] = tested on: Enterococcus faecium 180; assay: MIC, standard broth micro-dilution assay, EF 180
Protocol: as §1

[16] = tested on: Enterococcus faecium 180-1; assay: MIC, standard broth micro-dilution assay, EF 180-1
Protocol: as §1

[17] = tested on: Enterococcus faecalis 2041; assay: MIC, standard broth micro-dilution assay, EF 2041
Protocol: as §1

[18] = tested on: Enterococcus faecalis 276; assay: MIC, standard broth micro-dilution assay, EF 276
Protocol: as §1

[19] = tested on: Enterococcus gallinarum 245; assay: MIC, standard broth micro-dilution assay, EG 245
Protocol: as §1

[20] = tested on: Haemophilus influenzae RD; assay: MIC, standard broth micro-dilution assay, HFRD
Protocol: as §1

[21] = tested on: Escherichia coli EC14; assay: MIC, standard broth micro-dilution assay, EC 14
Protocol: as §1

SMILES | minimal inhibitory concentration (MIC), Resistant [1] | minimal inhibitory concentration (MIC), Sensitive [2] | minimal inhibitory concentration (MIC), SA 446 [3] | minimal inhibitory concentration (MIC), SA 489 [4] | minimal inhibitory concentration (MIC), SA 447 [5] | minimal inhibitory concentration (MIC), SA X400 [6] | minimal inhibitory concentration (MIC), SA X778 [7] | minimal inhibitory concentration (MIC), SA 491 [8] | minimal inhibitory concentration (MIC), SA S13E [9] | minimal inhibitory concentration (MIC), SA 1199 [10] | minimal inhibitory concentration (MIC), SA 1199A [11] | minimal inhibitory concentration (MIC), SH 105 [12] | minimal inhibitory concentration (MIC), SH 415 [13] | minimal inhibitory concentration (MIC), SE 270 [14] | minimal inhibitory concentration (MIC), EF 180 [15] | minimal inhibitory concentration (MIC), EF 180-1 [16] | minimal inhibitory concentration (MIC), EF 2041 [17] | minimal inhibitory concentration (MIC), EF 276 [18] | minimal inhibitory concentration (MIC), EG 245 [19] | minimal inhibitory concentration (MIC), HFRD [20] | further results
CC1OC(OC2c3ccc(c(Cl)c3)Oc3cc4cc(c3OC3OC(CO)C(O)C(O)C3OC3CC(C)(NCc5ccc(-c6ccccc6)cc5)C(O)C(C)O3)Oc3ccc(cc3Cl)C(O)C(NC(=O)C(Cc3ccc(Cl)cc3)NC(=O)OC(C)(C)C)C(=O)NC(CC(N)=O)C(=O)NC4C(=O)NC3C(=O)NC2C(=O)NC(C(=O)O)c2cc(O)cc(O)c2-c2cc3ccc2O)CC(C)(N)C1O [Example 28, N^1-[N-BOC-L-3-(p-chlorophenyl)alanine] derivative of N^DISACC-(p-phenylbenzyl)desleucylA82846B] | 13 | 1.7 | 4 | 1 | 2 | 2 | 1 | 2 | 2 | 2 | 1 | 2 | 4 | 1 | 2 | 0.5 | 2 | 1 | 2 | >64 | minimal inhibitory concentration (MIC), EC 14 [21]: >64
CC1OC(OC2c3ccc(c(Cl)c3)Oc3cc4cc(c3OC3OC(CO)C(O)C(O)C3OC3CC(C)(NCc5ccc(-c6ccccc6)cc5)C(O)C(C)O3)Oc3ccc(cc3Cl)C(O)C(NC(=O)CCCCCCCc3ccccc3)C(=O)NC(CC(N)=O)C(=O)NC4C(=O)NC3C(=O)NC2C(=O)NC(C(=O)O)c2cc(O)cc(O)c2-c2cc3ccc2O)CC(C)(N)C1O (stereo not drawn) [Example 3, N^1-(8-phenyl-n-octanoyl)-N^DISACC-(p-phenylbenzyl)desleucylA82846B] | 6.7 | 2.6 | 1 | 1 | 1 | 1 | 1 | 1 | 2 | 1 | 0.5 | 1 | 2 | 1 | 1 | ≦.06 | 0.5 | 0.5 | 2 | >64 | minimal inhibitory concentration (MIC), EC 14 [21]: >64
CC1OC(OC2c3ccc(c(Cl)c3)Oc3cc4cc(c3OC3OC(CO)C(O)C(O)C3OC3CC(C)(NCc5ccc(-c6ccccc6)cc5)C(O)C(C)O3)Oc3ccc(cc3Cl)C(O)C(NC(=O)C(Cc3c[nH]c5ccccc35)NC(=O)OC(C)(C)C)C(=O)NC(CC(N)=O)C(=O)NC4C(=O)NC3C(=O)NC2C(=O)NC(C(=O)O)c2cc(O)cc(O)c2-c2cc3ccc2O)CC(C)(N)C1O [Example 25, N^1-(N-BOC-D-tryptophan) derivative of N^DISACC-(p-phenylbenzyl)desleucylA82846B] | 27 | 1.3 | 4 | 1 | 2 | 2 | 2 | 2 | 2 | 1 | 0.5 | 2 | 4 | 2 | 8 | ≦.06 | 1 | 2 | 2 | >64 | minimal inhibitory concentration (MIC), EC 14 [21]: >64
CC1OC(OC2c3ccc(c(Cl)c3)Oc3cc4cc(c3OC3OC(CO)C(O)C(O)C3OC3CC(C)(NCc5ccc(-c6ccccc6)cc5)C(O)C(C)O3)Oc3ccc(cc3Cl)C(O)C(NC(=O)C3CCCN3)C(=O)NC(CC(N)=O)C(=O)NC4C(=O)NC3C(=O)NC2C(=O)NC(C(=O)O)c2cc(O)cc(O)c2-c2cc3ccc2O)CC(C)(N)C1O [Example 12, N^1-D-proline derivative of N^DISACC-(p-phenylbenzyl)desleucylA82846B] | 2.8 | 0.19 | 2 | 2 | 0.5 | 1 | 0.25 | 0.5 | 2 | 1 | 0.25 | 0.125 | 0.25 | 0.125 | 1 | ≦.06 | 0.25 | 1 | 0.25 | 32 | minimal inhibitory concentration (MIC), EC 14 [21]: >64
